Earlier results, collected in patent publication US20130064888A1, “PHARMACEUTICAL FORMULATIONS” (priority 2011, published 2013).

Assays:
[1] = at 25° C.; practically insoluble in water
[2] = many organic solvents, including ethanol

Substance: 5-chloro-N-({(5S)-2-oxo-3-[4-(3-oxo-4-morpholinyl)-phenyl]-1,3-oxaolidin-5-yl}methyl-2-thiophencarboxamide [Rivaroxaban]
- water solubility [1]: < 0.1 mg/mL
- solubility in organic solvents [2]: low solubility
